In ChEMBL document CHEMBL3351906, “Bioactive triterpenoid saponins and phenolic compounds against glioma cells” (Bioorg Med Chem Lett, 2014):
Active and inactive are the calls of the source. The calls are words filed in the database; no cut-off is given here.

What was measured:
U-251 [1] = assay: Induction of apoptosis in human U251 cells assessed as necrotic cell level at 10 uM after 72 hrs by annexin V-FITC/propidium iodide double staining based flow cytometry (reference value: 1.79%); assay type: functional
C6 [2] = assay: Induction of necrosis in rat C6 cells at 6 uM after 72 hrs by propidium iodide staining based fluorescence microscopy; assay type: functional, cell-based
U-251 [3] = assay: Inhibition of cell proliferation of human U251 cells assessed as cell viability at 100 uM after 72 hrs by sulforhodamine B assay; assay type: functional; conditions: U-251, 72 h, read-out: Activity
C6 [4] = assay: Induction of apoptosis in rat C6 cells assessed as nuclear pyknosis at 6 uM after 72 hrs by DAPI staining based fluorescence microscopy; assay type: functional, cell-based
U-251 [5] = assay: Induction of apoptosis in human U251 cells assessed as viable cell level at 10 uM after 72 hrs by annexin V-FITC/propidium iodide double staining based flow cytometry (reference value: 94.49%); assay type: functional
C6 [6] = assay: Induction of apoptosis in rat C6 cells assessed as early apoptotic level at 6 uM after 72 hrs by annexin V-FITC/propidium iodide double staining based flow cytometry (reference value: 1.67%); assay type: functional
C6 [7] = assay: Induction of apoptosis in rat C6 cells assessed as viable cell level at 6 uM after 72 hrs by annexin V-FITC/propidium iodide double staining based flow cytometry (reference value: 93.43); assay type: functional
U-251 [8] = assay: Inhibition of cell proliferation of human U251 cells assessed as cell viability after 72 hrs by sulforhodamine B assay; assay type: functional, cell-based; conditions: for IC50: U-251, 72 h
C6 [9] = assay: Inhibition of cell proliferation of rat C6 cells assessed as cell viability after 72 hrs by sulforhodamine B assay; assay type: functional, cell-based; conditions: for IC50: C6, 72 h
C6 [10] = assay: Induction of apoptosis in rat C6 cells assessed as late apoptotic level at 6 uM after 72 hrs by annexin V-FITC/propidium iodide double staining based flow cytometry (reference value: 3.68%); assay type: functional
U-251 [11] = assay: Induction of apoptosis in human U251 cells assessed as early apoptotic level at 10 uM after 72 hrs by annexin V-FITC/propidium iodide double staining based flow cytometry (reference value: 0.56%); assay type: functional
[12] = (§1) Inhibition of cell proliferation of human U87MG cells assessed as cell viability after 72 hrs by sulforhodamine B assay; assay type: functional, cell-based, U-87MG ATCC; conditions: U-87 MG
U-251 [13] = assay: Induction of necrosis in human U251 cells at 10 uM after 72 hrs propidium iodide staining based fluorescence microscopy; assay type: functional, cell-based
U-251 [14] = assay: Induction of apoptosis in human U251 cells assessed as nuclear pyknosis at 10 uM after 72 hrs by DAPI staining based fluorescence microscopy; assay type: functional, cell-based
C6 [15] = assay: Induction of apoptosis in rat C6 cells assessed as necrotic cell level at 6 uM after 72 hrs by annexin V-FITC/propidium iodide double staining based flow cytometry (reference value: 1.22%); assay type: functional
U-251 [16] = assay: Induction of apoptosis in human U251 cells assessed as late apoptotic level at 10 uM after 72 hrs by annexin V-FITC/propidium iodide double staining based flow cytometry (reference value: 3.16%); assay type: functional
U-251 [17] = assay: Induction of apoptosis in human U251 cells assessed as late apoptotic level at 40 uM after 72 hrs by annexin V-FITC/propidium iodide double staining based flow cytometry (reference value: 4.95%); assay type: functional
U-251 [18] = assay: Induction of apoptosis in human U251 cells assessed as early apoptotic level at 40 uM after 72 hrs by annexin V-FITC/propidium iodide double staining based flow cytometry (reference value: 1.77%); assay type: functional
U-251 [19] = assay: Induction of apoptosis in human U251 cells assessed as viable cell level at 40 uM after 72 hrs by annexin V-FITC/propidium iodide double staining based flow cytometry (reference value: 91.04%); assay type: functional
U-251 [20] = assay: Induction of apoptosis in human U251 cells assessed as nuclear pyknosis at 15 uM after 72 hrs by DAPI staining based fluorescence microscopy; assay type: functional, cell-based
C6 [21] = assay: Induction of apoptosis in rat C6 cells assessed as nuclear pyknosis at 10 uM after 72 hrs by DAPI staining based fluorescence microscopy; assay type: functional, cell-based
U-251 [22] = assay: Induction of apoptosis in human U251 cells assessed as necrotic cell level at 40 uM after 72 hrs by annexin V-FITC/propidium iodide double staining based flow cytometry (reference value: 2.24%); assay type: functional
C6 [23] = assay: Induction of necrosis in rat C6 cells at 10 uM after 72 hrs by propidium iodide staining based fluorescence microscopy; assay type: functional, cell-based
U-251 [24] = assay: Induction of necrosis in human U251 cells at 15 uM after 72 hrs propidium iodide staining based fluorescence microscopy; assay type: functional, cell-based
C6 [25] = assay: Inhibition of cell proliferation of rat C6 cells assessed as cell viability at 100 uM after 72 hrs by sulforhodamine B assay; assay type: functional; conditions: C6, 72 h, read-out: Activity
U-87MG ATCC = assay: as §1; assay type: functional, cell-based
U-251 [26] = assay: Induction of necrosis in human U251 cells at 20 uM after 72 hrs propidium iodide staining based fluorescence microscopy; assay type: functional, cell-based
C6 [27] = assay: Induction of necrosis in rat C6 cells at 2.5 uM after 72 hrs by propidium iodide staining based fluorescence microscopy; assay type: functional, cell-based
C6 [28] = assay: Induction of apoptosis in rat C6 cells assessed as nuclear pyknosis at 2.5 uM after 72 hrs by DAPI staining based fluorescence microscopy; assay type: functional, cell-based
U-251 [29] = assay: Induction of apoptosis in human U251 cells assessed as nuclear pyknosis at 20 uM after 72 hrs by DAPI staining based fluorescence microscopy; assay type: functional, cell-based

SMILES | viability at 100 µM (U-251 [3]) [%] | IC50 (U-251 [8]) [µM] | IC50 (C6 [9]) [µM] | IC50 [12] [µM] | viability at 100 µM (C6 [25]) [%] | inhibition (U-251 [8]) | inhibition (C6 [9]) | inhibition (U-87MG ATCC) | further results
C=C[C@@](C)(O)CC/C=C(\C)C(=O)OC[C@H]1O[C@@H](OC(=O)[C@]23CCC(C)(C)C[C@H]2C2=CC[C@@H]4[C@@]5(C)CC[C@H](O[C@@H]6O[C@H](CO[C@@H]7OC[C@H](O)[C@H](O)[C@H]7O[C@@H]7OC[C@@H](O)[C@H](O)[C@H]7O)[C@@H](O)[C@H](O)[C@H]6O)C(C)(C)[C@@H]5CC[C@@]4(C)[C@]2(C)CC3)[C@H](O[C@@H]2O[C@@H](C)[C@H](O[C@@H]3OC[C@@H](O)[C@H](O[C@@H]4OC[C@@H](O)[C@H](O)[C@H]4O)[C@H]3O)[C@@H](O)[C@H]2O)[C@@H](O)[C@@H]1O | 14.2 | 16.9 | 7.3 | 14.7 |  |  |  |  | Activity (U-251 [1]): 13.62%; Activity (C6 [2]): Active; Activity (C6 [4]): Active; Activity (U-251 [5]): 64.13%; Activity (C6 [6]): 16.73%; Activity (C6 [7]): 40.15%; Activity (C6 [10]): 21.37%; Activity (U-251 [11]): 4.12%; Activity (U-251 [13]): Active; Activity (U-251 [14]): Active; Activity (C6 [15]): 21.75%; Activity (U-251 [16]): 18.13%
C/C=C(/C)C(=O)O[C@H]1[C@H](O)[C@]2(COC(C)=O)[C@H](O)C[C@]3(C)C(=CC[C@@H]4[C@@]5(C)CC[C@H](O[C@@H]6O[C@H](C(=O)OC)[C@@H](O[C@@H]7O[C@H](CO)[C@@H](O)[C@H](O)[C@H]7O)[C@H](O)[C@H]6O[C@@H]6O[C@H](CO)[C@@H](O)[C@H](O)[C@H]6O)[C@](C)(CO)[C@@H]5CC[C@]43C)[C@@H]2CC1(C)C | 22.2 | 15.6 | 11 | 8.32 |  |  |  |  | Activity (U-251 [17]): 26.54%; Activity (U-251 [18]): 7.06%; Activity (U-251 [19]): 62.1%; Activity (U-251 [20]): Active; Activity (C6 [21]): Active; Activity (U-251 [22]): 4.3%; Activity (C6 [23]): Active; Activity (U-251 [24]): Active
C[C@@H]1O[C@@H](O[C@H]2[C@H](OC(=O)[C@]34CCC(C)(C)C[C@H]3C3=CC[C@@H]5[C@@]6(C)CC[C@H](O[C@@H]7O[C@H](CO[C@@H]8OC[C@H](O)[C@H](O)[C@H]8O[C@@H]8OC[C@@H](O)[C@H](O)[C@H]8O)[C@@H](O)[C@H](O)[C@H]7O)C(C)(C)[C@@H]6CC[C@@]5(C)[C@]3(C)C[C@H]4O)O[C@H](CO)[C@@H](O)[C@@H]2O)[C@H](O[C@@H]2OC[C@@H](O)[C@H](O)[C@H]2O)[C@H](O)[C@H]1O[C@@H]1OC[C@@H](O)[C@H](O[C@@H]2OC[C@@H](O)[C@H](O)[C@H]2O)[C@H]1O | 93.6 |  |  |  | 81.6 | inactive | inactive | inactive | 
C[C@@H]1O[C@@H](OC[C@H]2O[C@@H](OC(=O)[C@]34CCC(C)(C)C[C@H]3C3=CC[C@@H]5[C@@]6(C)CC[C@H](O[C@@H]7O[C@H](CO[C@@H]8OC[C@H](O)[C@H](O)[C@H]8O)[C@@H](O)[C@H](O)[C@H]7O)C(C)(C)[C@@H]6CC[C@@]5(C)[C@]3(C)C[C@H]4O)[C@H](O[C@@H]3O[C@@H](C)[C@H](O[C@@H]4OC[C@@H](O)[C@H](O[C@@H]5OC[C@@H](O)[C@H](O)[C@H]5O)[C@H]4O)[C@@H](O)[C@H]3O)[C@@H](O)[C@@H]2O)[C@H](O)[C@H](O)[C@H]1O | 72.3 |  |  |  | 63.9 | inactive | inactive | inactive | 
CC1(C)CC[C@]2(C(=O)O)CC[C@]3(C)C(=CC[C@@H]4[C@@]5(C)CC[C@H](O[C@@H]6O[C@H](CO[C@@H]7OC[C@H](O)[C@H](O)[C@H]7O[C@@H]7OC[C@@H](O)[C@H](O)[C@H]7O)[C@@H](O)[C@H](O)[C@H]6O)C(C)(C)[C@@H]5CC[C@]43C)[C@@H]2C1 [PITHEDULOSIDE C] | 104 |  |  |  | 63 | inactive | inactive | inactive | 
Cn1nnc2c(C(N)=O)ncn2c1=O [TEMOZOLOMIDE] |  | > 200 | 60.5 | > 200 |  |  |  |  | 
C[C@@H]1O[C@@H](O[C@H]2[C@H](OC(=O)[C@]34CCC(C)(C)C[C@H]3C3=CC[C@@H]5[C@@]6(C)CC[C@H](O[C@@H]7O[C@H](CO[C@@H]8OC[C@H](O)[C@H](O)[C@H]8O[C@@H]8OC[C@@H](O)[C@H](O)[C@H]8O)[C@@H](O)[C@H](O)[C@H]7O)C(C)(C)[C@@H]6CC[C@@]5(C)[C@]3(C)CC4)O[C@H](CO)[C@@H](O)[C@@H]2O)[C@H](O)[C@H](O)[C@H]1O[C@@H]1OC[C@@H](O)[C@H](O[C@@H]2OC[C@@H](O)[C@H](O)[C@H]2O)[C@H]1O | 91.8 |  |  |  | 62.7 | inactive | inactive | inactive | 
C[C@@H]1O[C@@H](O[C@H]2[C@H](OC(=O)[C@]34CCC(C)(C)C[C@H]3C3=CC[C@@H]5[C@@]6(C)CC[C@H](O[C@@H]7O[C@H](CO[C@@H]8OC[C@H](O)[C@H](O)[C@H]8O[C@@H]8OC[C@@H](O)[C@H](O)[C@H]8O)[C@@H](O)[C@H](O)[C@H]7O)C(C)(C)[C@@H]6CC[C@@]5(C)[C@]3(C)C[C@H]4O)O[C@H](CO)[C@@H](O)[C@@H]2O)[C@H](O[C@@H]2O[C@H](CO)[C@H](O)[C@H](O)[C@H]2O)[C@H](O)[C@H]1O[C@@H]1OC[C@@H](O)[C@H](O[C@@H]2OC[C@@H](O)[C@H](O)[C@H]2O)[C@H]1O | 130 |  |  |  | 61.5 | inactive | inactive | inactive | 
COc1cc(CCC(=O)OCCc2ccc(O)c(O)c2)ccc1O | 48.4 | 29.5 | 5.37 |  |  |  |  |  | Activity (U-251 [26]): Active; Activity (C6 [27]): Active; Activity (C6 [28]): Active; Activity (U-251 [29]): Active
